US20100081679A1, “DIAMINOPYRIMIDINES AS FUNGICIDES” (Bayer CropScience AG, priority 2007, published 2010)
Where two headings read alike, the source gives them in different places. Marks after values point to notes of the source that are not given here. Each block holds one compound with its values, some of them ahead of it.

Assay: logP determination via retention times, calibrated with unbranched alkan-2-ones
Format: physicochemical
[1] = HPLC on reversed-phase C18, method *: 40° C., 0.1% aqueous formic acid and acetonitrile, linear gradient 10% to 95% acetonitrile
[2] = method *: HPLC reversed-phase C 18, temperature 40° C., mobile phase 0.1% aqueous formic acid and acetonitrile, linear gradient 10% to 95% acetonitrile
[3] = HPLC reversed-phase C 18, EEC Directive 79/831 Annex V.A8, method *: 40° C., 0.1% aqueous formic acid and acetonitrile, linear gradient 10% to 95% acetonitrile
[4] = HPLC on reversed-phase C 18, EEC Directive 79/831 Annex V.A8, method *: 40° C., 0.1% aqueous formic acid and acetonitrile, linear gradient 10% to 95% acetonitrile
[5] = method **: HPLC, reversed-phase C 18, 43° C., mobile phase 0.1% aqueous phosphoric acid and acetonitrile, linear gradient from 10% to 95% acetonitrile
[6] = method *: HPLC, reversed-phase C 18, 40° C., mobile phase 0.1% aqueous formic acid and acetonitrile, linear gradient from 10% to 95% acetonitrile
[7] = HPLC on reversed-phase C18, method *: 40° C., mobile phase 0.1% aqueous formic acid and acetonitrile, linear gradient 10% to 95% acetonitrile
[8] = method *: HPLC reversed-phase C18, 40° C., 0.1% aqueous formic acid and acetonitrile, linear gradient 10% to 95% acetonitrile
[9] = method **: HPLC reversed-phase C 18, 43° C., 0.1% aqueous phosphoric acid and acetonitrile, linear gradient 10% to 95% acetonitrile

logP [1]: 1.48*
Compound: O=C1CCCN1c1cccc(Nc2ncc(C(F)F)c(NCC3CC3)n2)c1 [compound 774]

logP [2]: 1.92*
Compound: CC(C)(C)C(=O)Cc1ccc(Nc2ncc(F)c(NC3CC3)n2)cc1 [compound 589]

logP [3]: 1.81*
Compound: N#CCc1cccc(Nc2ncc(Cl)c(NCC3CC3)n2)c1 [compound 821]

logP [5]: 3.69**
Compound: N#Cc1cc(Nc2ncc(Cl)c(NC3CC3)n2)cc(C(F)(F)F)c1 [compound 1017]

logP [3]: 2.2*
Compound: CO/N=C(\C)Cc1cccc(Nc2ncc(Cl)c(NC3CC3)n2)c1 [compound 854]

logP [6]: 3.78*
Compound: CCCCSc1cccc(Nc2ncc(Cl)c(NC3CC3)n2)c1 [compound 1054]

logP [3]: 2.25*
Compound: CCCS(=O)(=O)c1cccc(Nc2ncc(Cl)c(NC3CC3)n2)c1 [compound 852]

logP (HPLC on reversed-phase C 18, method **: 43° C., 0.1% aqueous phosphoric acid and acetonitrile, linear gradient 10% to 95% acetonitrile): 2.21**
Compound: CN(CC1CC1)c1nc(Nc2cccc(N3CCCC3=O)c2)ncc1Cl [compound 964]

logP [1]: 3.33*
Compound: FC(F)(F)c1ccc(Nc2ncc(Br)c(NC3CC3)n2)cc1 [compound 740]

logP [1]: 3.9*
Compound: FC(F)(F)Sc1ccc(Nc2ncc(Br)c(NC3CC3)n2)cc1 [compound 745]

logP [6]: 1.25*
Compound: OCc1cc(Nc2ncc(Cl)c(NC3CC3)n2)ccc1F [compound 1047]

logP [3]: 1.76*
Compound: N#CCc1cc(Nc2ncc(Cl)c(NC3CC3)n2)ccc1F [compound 813]

logP [3]: 1.99*
Compound: Oc1c(Cl)cc(Nc2ncc(Cl)c(NC3CC3)n2)cc1Cl [compound 845]

logP [6]: 4.37*
Compound: CCSC(C)c1cccc(Nc2ncc(C(F)(F)F)c(NCC3CC3)n2)c1 (stereo not shown) [compound 988]

logP [6]: 1.34*
Compound: CC(=O)Nc1cc(Nc2ncc(Cl)c(NC3CC3)n2)ccc1C [compound 982]

logP [1]: 3.63*
Compound: Clc1cc(Nc2ncc(Cl)c(NC3CC3)n2)ccc1Br [compound 919]

logP [1]: 3.14*
Compound: FC(F)C(F)(F)Oc1ccccc1Nc1ncc(Cl)c(NC2CC2)n1 [compound 896]

logP [3]: 1.09*
Compound: O=C(O)CCc1cccc(Nc2ncc(Cl)c(NC3CC3)n2)c1 [compound 795]

logP [2]: 2.46*
Compound: CC(C)(C)C(=O)Nc1ccc(Nc2ncc(C(F)(F)F)c(NC3CC3)n2)cc1 [compound 647]

logP [1]: 1.58*
Compound: CC(=O)N(C)c1ccc(Nc2ncc(Cl)c(NCC3CC3)n2)cc1 [compound 671]

logP [3]: 2.37*
Compound: CCc1cccc(Nc2ncc(Cl)c(NCC3CC3)n2)c1 [compound 776]

logP [1]: 1.93*
Compound: Cc1cccc(Nc2ncc(Cl)c(NC3CC3)n2)c1 [compound 731]

logP [6]: 2.65*
Compound: Brc1cnc(Nc2ccccc2)nc1NC1CC1 [compound 1069]

logP [1]: 2.21*
Compound: Clc1cnc(Nc2ccccc2Cc2ccccc2)nc1NC1CC1 [compound 890]

logP [1]: 3.72*
Compound: FC(F)(F)Sc1ccccc1Nc1ncc(Cl)c(NC2CC2)n1 [compound 944]

logP [6]: 1.77*
Compound: COCC1CCCN1C(=O)c1cccc(Nc2ncc(Cl)c(NC3CC3)n2)c1 (stereo not shown) [compound 1061]

logP [1]: 1.36*
Compound: Oc1ccc(Nc2ncc(Cl)c(NCC3CC3)n2)cc1 [compound 680]

logP [1]: 1.93*
Compound: CCC(=O)Nc1ccc(Nc2ncc(C(F)(F)F)c(NC3CC3)n2)cc1 [compound 710]

logP [1]: 2.54*
Compound: CC(C)c1ccc(Nc2ncc(Cl)c(NC3CC3)n2)cc1 [compound 729]

logP [1]: 4.56*
Compound: FC(F)(F)c1cc(Nc2ncc(Cl)c(NC3CC3)n2)cc(C(F)(F)F)c1 [compound 903]

logP [2]: 1.53*
Compound: CCOC(=O)Nc1cccc(Nc2ncc(F)c(NC3CC3)n2)c1 [compound 596]

logP [2]: 1.64*
Compound: CNC(=O)c1cccc(Nc2ncc(C#N)c(NC3CC3)n2)c1 [compound 608]

logP [3]: 2.44*
Compound: CSc1cccc(Nc2ncc(I)c(NC3CC3)n2)c1 [compound 858]

logP [1]: 1.73*
Compound: C=CCNC(=O)c1ccc(Nc2ncc(Br)c(NC3CC3)n2)cc1 [compound 755]

logP [5]: 1.86**
logP [6]: 1.86*;
Compound: CN(C)C(=O)c1ccc(Nc2ncc(Cl)c(NC3CC3(C)C)n2)cc1 (stereo not shown) [compound 1030]

logP [6]: 3.13*
Compound: CCCCOc1cc(Nc2ncc(Cl)c(NC3CC3)n2)ccc1C [compound 991]

logP [1]: 1.96*
Compound: CC(C)c1ccccc1Nc1ncc(Cl)c(NC2CC2)n1 [compound 872]

logP [3]: 3.09*
Compound: CCSC(C)c1cccc(Nc2ncc(Br)c(NC3CC3)n2)c1 (stereo not shown) [compound 797]

Further lines, the compound ahead of its results:

Compound: CC(=O)Nc1ccc(Nc2ncc(F)c(NC3CC3)n2)cc1Cl [compound 580]
logP [2]: 1.32*

Compound: Clc1cnc(Nc2ccccc2)nc1NC1CC1 [Example 2, 5-Chloro-N^4-cyclopropyl-N^2-phenylpyrimidine-2,4-diamine]
chromatographic logP (pH 2.3, read-out: logP (pH2.3)): 1.61
chromatographic logP (reversed-phase C18 HPLC column, method *: HPLC reversed-phase C 18, 40° C., 0.1% aqueous formic acid and acetonitrile, linear gradient 10% to 95% acetonitrile, read-out: logP): 1.61

Compound: CNC(=O)c1ccc(Nc2ncc(Cl)c(NCC3CC3)n2)cc1 [compound 510]
logP [4]: 1.44*

Compound: O=C1CCCN1c1ccc(Nc2ncc(Cl)c(NCC3CC3)n2)cc1 [compound 154]
logP [1]: 1.5*

Compound: N#CCC(=O)c1ccc(Nc2ncc(Cl)c(NC3CC3)n2)cc1 [compound 248]
logP (HPLC on reversed-phase C18 column (EEC Directive 79/831 Annex V.A8), method *: 40° C., 0.1% aqueous formic acid and acetonitrile, linear gradient 10% to 95% acetonitrile): 2.09*

Compound: CNC(=O)Oc1cccc(Nc2ncc(C#N)c(NC3CC3)n2)c1 [compound 611]
logP [2]: 1.92*

Compound: CSc1cccc(Nc2ncc(F)c(NC3CC3)n2)c1 [compound 586]
logP [2]: 1.73*

Compound: FC(F)(F)c1ccccc1Nc1ncc(Cl)c(NC2CC2)n1 [compound 276]
logP [7]: 2.58*

Compound: FC(F)(F)Oc1ccc(Nc2ncc(Cl)c(NC3CC3)n2)cc1Cl [compound 296]
logP [7]: 3.9*

Compound: CC(C)(C)NC(=O)c1ccc(Nc2ncc(Br)c(NCC3CC3)n2)cc1 [compound 426]
logP [8]: 2.3*

Compound: CCOC(=O)c1cccc(Nc2ncc(Cl)c(NC3CC3)n2)c1 [compound 292]
logP [7]: 2.26*

Compound: COCC(C)Nc1ccc(Nc2ncc(Cl)c(NC3CC3)n2)cc1 (stereo not shown) [Example 110]
logP [1]: 2.03*

Compound: FC(F)(F)Sc1ccc(Nc2ncc(Cl)c(NC3CC3)n2)cc1 [compound 376]
logP [8]: 3.72*

Compound: CC(=O)c1cc(Nc2ncc(Br)c(NCC3CC3)n2)ccc1Cl [compound 487]
logP [4]: 2.67*

Compound: CCSc1cccc(Nc2ncc(Cl)c(NC3CC3)n2)c1 [compound 436]
logP [8]: 2.72*

Compound: O=C1OCCN1c1ccc(Nc2ncc(C(F)(F)F)c(NC3CC3)n2)cc1 [compound 367]
logP [9]: 2.04**
logP [8]: 1.94*;

Compound: CC(C)(C)OC(=O)Nc1ccc(Nc2ncc(Br)c(NC3CC3)n2)cc1 [compound 391]
logP [8]: 2.13*

Compound: Fc1ccc(Nc2ncc(C(F)(F)F)c(NC3CC3)n2)cc1 [compound 498]
logP (HPLC on reversed-phase C 18, EEC Directive 79/831 Annex V.A8, method **: 43° C., 0.1% aqueous phosphoric acid and acetonitrile, linear gradient 10% to 95% acetonitrile): 2.96**

Compound: CCOC1(Nc2nc(Cl)ncc2Cl)CC1 [2,5-Dichloro-N-(1-ethoxycyclopropyl)pyrimidine-4-amine]
chromatographic logP (pH 2.3, read-out: logP (pH2.3)): 2.09

Compound: COC(=O)Nc1cccc(Nc2ncc(Cl)c(NCC3CC3)n2)c1 [compound 515]
logP [4]: 1.66*

Compound: COC(=S)Nc1ccc(Nc2ncc(Cl)c(NC3CC3)n2)cc1 [compound 365]
logP [8]: 1.8*

Compound: CC(C)(C)C(=O)Nc1cccc(Nc2ncc(Cl)c(NCC3CC3)n2)c1 [compound 312]
logP [7]: 2.14*

Compound: NS(=O)(=O)c1ccc(Nc2ncc(F)c(NC3CC3)n2)cc1 [compound 46]
logP [9]: 0.95**

Compound: COc1ccccc1Nc1ncc(Cl)c(NC2CC2)n1 [compound 282]
logP [7]: 1.85*

Compound: N#Cc1ccc(Nc2ncc(F)c(NC3CC3)n2)cc1 [compound 575]
logP [2]: 1.73*

Compound: Cc1cc(O)ccc1Nc1ncc(Br)c(NC2CC2)n1 [compound 112]
logP [1]: 1.21*

Compound: CC1(C(=O)Nc2ccc(Nc3ncc(Cl)c(NC4CC4)n3)cc2)CC1 [Example 64]
logP [8]: 1.66*

Compound: CCOC(=O)c1cccc(Nc2ncc(Br)c(NCC3CC3)n2)c1 [compound 477]
logP [4]: 2.51*

Compound: O=C(c1ccc(Nc2ncc(Cl)c(NC3CC3)n2)cc1)C(F)(F)F [Example 73]
logP [8]: 3.62*

Compound: CCOC(=O)Nc1ccc(Nc2ncc(Br)c(NCC3CC3)n2)cc1O [compound 489]
logP [4]: 1.75*

Compound: COc1ccc(Nc2ncc(Cl)c(NC3CC3)n2)cc1OC [compound 279]
logP [7]: 1.47*

Compound: CCN(C(C)=O)c1ccc(Nc2ncc(Br)c(NCC3CC3)n2)cc1 [compound 480]
logP [4]: 1.83*

Compound: CC1CC(C)CN(c2cccc(Nc3ncc(Cl)c(NC4CC4)n3)c2)C1 (stereo not shown) [compound 528]
logP [4]: 2.46*

Compound: CC(C)(C)OC(=O)NCc1ccc(Nc2ncc(Cl)c(NCC3CC3)n2)cc1 [compound 162]
logP [1]: 2.21*

Compound: O=S(=O)(Cc1ccc(Nc2ncc(Cl)c(NC3CC3)n2)cc1)N1CCCCC1 [compound 537]
logP [4]: 2.17*

Compound: Clc1ncc(Br)c(NCC2CC2)n1 [5-bromo-2-chloro-N-(cyclopropylmethyl)pyrimidine-4-amine]
chromatographic logP (pH 2.3, read-out: logP (pH2.3)): 2.69

Compound: CC(=O)Nc1ccc(Nc2ncc(Br)c(NCC3CC3)n2)cc1Cl [compound 479]
logP [4]: 1.68*

Compound: CC(C)NS(=O)(=O)Cc1cccc(Nc2ncc(Cl)c(NC3CC3)n2)c1 [compound 325]
logP (HPLC on reversed-phase C18, method **: 43° C., mobile phase 0.1% aqueous phosphoric acid and acetonitrile, linear gradient 10% to 95% acetonitrile): 1.78**
